For 4 compounds, log k and MIC results are on record in article PMC6259751, “Investigating Spectrum of Biological Activity of 4- and 5-Chloro-2-hydroxy-N-[2-(arylamino)-1-alkyl-2-oxoethyl]benzamides” (Molecules, 2011).

Values after ≈ are worked out from the molar mass of the structure shown. Where two headings read alike, the source gives them in different places.

A short description of data set [1]: Lipophilicity determination by RP-HPLC (capacity factor k / log k). The class given is physicochemical. Conditions: C18 column, MeOH 70% / H2O 30%, isocratic. The procedure:
Hydrophobicities (log P/Clog P) of compounds 8 and 9 were calculated using two commercially available programs (ChemOffice Ultra 10.0 and ACD/LogP) and measured by means of RP-HPLC determination of capacity factors k with subsequent calculation of log k. The procedure was performed under isocratic conditions with methanol as an organic modifier in the mobile phase using an end-capped non-polar C18 stationary RP column. The results are shown in Table 1 and illustrated in Figure 1.
A Waters Alliance 2695 XE HPLC separation module and a Waters Photodiode Array Detector 2996 (Waters Corp., Milford, MA, USA) were used. A Symmetry® C18 5 μm, 4.6 × 250 mm, Part No. WAT054275 (Waters Corp., Milford, MA, USA) chromatographic column was used. The HPLC separation process was monitored by Empower™ 2 Chromatography Data Software, Waters 2009 (Waters Corp., Milford, MA, USA). A mixture of MeOH p.a. (70%) and H2O-HPLC – Mili-Q Grade (30%) was used as a mobile phase. The total flow of the column was 1.0 mL/min, injection volume, 30 μL, column temperature, 30 °C and sample temperature, 10 °C. The detection wavelength of 210 nm was chosen. The KI methanolic solution was used for the dead time (tD) determination. Retention times (tR) were measured in minutes. The capacity factors k were calculated using the Empower™ 2 Chromatography Data Software according to formula k = (tR - tD)/tD, where tR is the retention time of the solute, whereas tD denotes the dead time obtained using an unretained analyte. Log k, calculated from the capacity factor k, is used as the lipophilicity index converted to log P scale.

The test system of data set [2] is Mycobacterium tuberculosis MTB CNCTC My 331/88. In words: In vitro antimycobacterial evaluation. It counts as cell-based. To be noted: IC90 value.
Data set [3] has as its system Mycobacterium avium MA CNCTC My 330/88. In words: In vitro antimycobacterial evaluation. To be noted: IC90 value. The class given is cell-based.
The test system of data set [4] is Mycobacterium kansasii MK CNCTC My 235/80. The experiment in a line: In vitro antimycobacterial evaluation. Conditions: IC90 value. It counts as cell-based.
The next data set relates to Candida tropicalis 156. The experiment in a line: In vitro antifungal susceptibility testing (broth microdilution). It counts as cell-based. To be noted: M27-A2 for yeasts, IC80 value. (In general: In broth dilution the organism is exposed to a series of concentrations in liquid medium.)
Data set [5] deals with Trichophyton mentagrophytes 445. Described as above. It counts as cell-based. Conditions: M38-A for moulds, IC50 value, read-out: MIC TM.
Data set [6] relates to Staphylococcus aureus CCM 4516/08. In words: In vitro antibacterial susceptibility testing (broth microdilution). Conditions: read-out: MIC SA.
For data set [7], the system named is methicilin resistant Staphylococcus aureus H 5996/08. The data set is described as above. Conditions: MRSA, read-out: MIC MRSA.
Data set [8] deals with Staphylococcus epidermidis H 6966/08. Described as above. To be noted: read-out: MIC SE.
For data set [9], the system named is Enterococcus sp. J 14365/08. Described as above. Conditions: read-out: MIC EF.

In [1], `CC(C)[C@H](NC(=O)c1cc(Cl)ccc1O)C(=O)Nc1ccc(Cl)c(Cl)c1` [8o] showed a log k of 0.8623. The MIC in data set [2] (14h) worked out at 32 µM (≈ 13.3 µg/mL); in data set [2] (21h), 32 µM (≈ 13.3 µg/mL); in data set [3] (14h) it was 62.5 µM (≈ 26 µg/mL); in data set [3] (21h), 125 µM (≈ 52 µg/mL); in [4] (14h) it was 32 µM (≈ 13.3 µg/mL); in data set [4] (21h), 62.5 µM (≈ 26 µg/mL). Further, the minimal inhibitory concentration (MIC) is > 125 µM against Candida tropicalis 156 (24h); > 125 µM in the data set with Candida tropicalis 156 (48h); > 125 µM in data set [5] (72h); > 125 µM in data set [5] (120h); > 500 µM in data set [6] (CCM4516, 24 h); > 500 µM in data set [6] (CCM4516, 48 h). Further, the MIC was > 500 µM in data set [7] (24 h); > 500 µM in [7] (48 h); > 500 µM in [8] (H6966/08, 24 h); > 500 µM in data set [8] (H6966/08, 48 h); > 500 µM in data set [9] (SP.J14365/08, 24 h); > 500 µM in data set [9] (SP.J14365/08, 48 h).

With `CC(C)[C@@H](NC(=O)c1cc(Cl)ccc1O)C(=O)Nc1ccc(Cl)c(Cl)c1` [8p], the log k in [1] is listed as 0.8614. The MIC came out at 16 µM (≈ 6.65 µg/mL) in data set [2] (14h); 32 µM (≈ 13.3 µg/mL) in data set [2] (21h); 62.5 µM (≈ 26 µg/mL) in data set [3] (14h); 125 µM (≈ 52 µg/mL) in [3] (21h); 32 µM (≈ 13.3 µg/mL) in [4] (14h); 62.5 µM (≈ 26 µg/mL) in [4] (21h). Besides, the MIC with Candida tropicalis 156 (24h) is > 125 µM; in the data set on Candida tropicalis 156 (48h) it was > 125 µM; in data set [5] (72h) it was > 125 µM; in data set [5] (120h), > 125 µM; in [6] (CCM4516, 24 h), > 500 µM; in data set [6] (CCM4516, 48 h) it was > 500 µM. In addition, the MIC in data set [7] (24 h) was > 500 µM; in [7] (48 h) it was > 500 µM; in data set [8] (H6966/08, 24 h) it was > 500 µM; in data set [8] (H6966/08, 48 h) it was > 500 µM; in [9] (SP.J14365/08, 24 h), > 500 µM; in [9] (SP.J14365/08, 48 h) it was > 500 µM.

In data set [1], `CC(C)[C@@H](NC(=O)c1cc(Cl)ccc1O)C(=O)Nc1ccc(Br)cc1` [8t] gave a log k of 0.6646. Also, the MIC in data set [2] (14h) worked out at 62.5 µM (≈ 26.6 µg/mL); in data set [2] (21h), 62.5 µM (≈ 26.6 µg/mL); in [3] (14h), 62.5 µM (≈ 26.6 µg/mL); in data set [3] (21h), 62.5 µM (≈ 26.6 µg/mL); in [4] (14h), 62.5 µM (≈ 26.6 µg/mL); in data set [4] (21h) it was 125 µM (≈ 53.2 µg/mL). In addition, the MIC against Candida tropicalis 156 (24h) is > 125 µM; in the data set with Candida tropicalis 156 (48h), > 125 µM; in data set [5] (72h), > 125 µM; in data set [5] (120h) it was > 125 µM; in data set [6] (CCM4516, 24 h), > 125 µM; in data set [6] (CCM4516, 48 h), > 125 µM. Also, the MIC in [7] (24 h) was > 125 µM; in data set [7] (48 h) it was > 125 µM; in data set [8] (H6966/08, 24 h) it was > 125 µM; in data set [8] (H6966/08, 48 h), > 125 µM; in data set [9] (SP.J14365/08, 24 h), > 125 µM; in [9] (SP.J14365/08, 48 h) it was > 125 µM.

Take `O=C(N[C@H](Cc1ccccc1)C(=O)Nc1ccc(Br)cc1)c1cc(Cl)ccc1O` [8v]: in data set [1], the log k amounted to 0.7673. In addition, the MIC was 32 µM (≈ 15.2 µg/mL) in [2] (14h); 32 µM (≈ 15.2 µg/mL) in [2] (21h); 250 µM (≈ 118 µg/mL) in [3] (14h); 250 µM (≈ 118 µg/mL) in data set [3] (21h); 32 µM (≈ 15.2 µg/mL) in data set [4] (14h); 32 µM (≈ 15.2 µg/mL) in data set [4] (21h). In addition, the MIC was 500 µM (≈ 237 µg/mL) against Candida tropicalis 156 (24h); > 500 µM with Candida tropicalis 156 (48h); 500 µM (≈ 237 µg/mL) in data set [5] (72h); > 500 µM in data set [5] (120h); 3.9 µM (≈ 1.85 µg/mL) in [6] (CCM4516, 24 h); 15.6 µM (≈ 7.4 µg/mL) in data set [6] (CCM4516, 48 h). Moreover, the MIC in [7] (24 h) is 7.81 µM (≈ 3.7 µg/mL); in data set [7] (48 h), 15.6 µM (≈ 7.4 µg/mL); in data set [8] (H6966/08, 24 h), 62.5 µM (≈ 29.6 µg/mL); in data set [8] (H6966/08, 48 h), 125 µM (≈ 59.2 µg/mL); in data set [9] (SP.J14365/08, 24 h), 62.5 µM (≈ 29.6 µg/mL); in data set [9] (SP.J14365/08, 48 h), 62.5 µM (≈ 29.6 µg/mL).

Broadly, the MIC is the least concentration at which growth counts as inhibited.
